Here are results for five molecules from ChEMBL document CHEMBL3856253, “6'-O-Caffeoyldihydrosyringin isolated from Aster glehni suppresses lipopolysaccharide-induced iNOS, COX-2, TNF-α, IL-1β and IL-6 expression via NF-κB and AP-1 inactivation in RAW 264.7 macrophages” (Bioorg Med Chem Lett, 2016).

In general, IC80 refers to the concentration at which the effect reaches the 80% level. What is called pIC50 is −log10 of the IC50, conventionally taken in molar units.

pIC50: −log10 of the molar value. Activity calls are given as the source filed them. The rule behind the calls is not given here.

A short description of data set [1]: Cytotoxicity against LPS-induced mouse RAW264.7 cells assessed as decrease in cell viability after 24 hrs by MTT assay. Particulars: LPS-induced RAW264.7 cells. In kind it is toxicity. A general note: Tetrazolium dyes change colour on reduction, which living cells bring about.
Data set [2] in a line: (§1) Inhibition of NF-kappaB/AP-1 in mouse RAW264.7 cells assessed as reduction in LPS-induced nitric oxide production incubated for 1 hr followed by stimulation with LPS for 24 hrs by Griess assay. It counts as cell-based.
Data set [3] in a line: (§2) Inhibition of NF-kappaB/AP-1 in mouse RAW264.7 cells assessed as reduction in LPS-induced PGE2 production incubated for 1 hr followed by stimulation with LPS for 24 hrs by enzyme immuno assay. It counts as cell-based.
Data set [4] has as its target Transcription factor p65 (Mus musculus) (UniProt Q04207). The data set is described as follows: Inhibition of LPS-induced NF-kappaB p65 subunit phosphorylation in mouse RAW264.7 cells at 50 uM incubated for 1 hr followed by stimulation with LPS for 15 to 45 mins. In kind it is cell-based.
The target of data set [5] is Proto-oncogene c-Fos (Mus musculus) (UniProt P01101). The data set is described as follows: Inhibition of LPS-induced AP-1 c-Fos component phosphorylation in nucleus of mouse RAW264.7 cells at 50 uM incubated for 1 hr followed by stimulation with LPS for 15 to 45 mins by Western blot analysis. For orientation: Immunoblotting shows a protein as a band on a membrane.
Proto-oncogene c-Fos (Mus musculus), sequence (P01101 whole entry, looked up): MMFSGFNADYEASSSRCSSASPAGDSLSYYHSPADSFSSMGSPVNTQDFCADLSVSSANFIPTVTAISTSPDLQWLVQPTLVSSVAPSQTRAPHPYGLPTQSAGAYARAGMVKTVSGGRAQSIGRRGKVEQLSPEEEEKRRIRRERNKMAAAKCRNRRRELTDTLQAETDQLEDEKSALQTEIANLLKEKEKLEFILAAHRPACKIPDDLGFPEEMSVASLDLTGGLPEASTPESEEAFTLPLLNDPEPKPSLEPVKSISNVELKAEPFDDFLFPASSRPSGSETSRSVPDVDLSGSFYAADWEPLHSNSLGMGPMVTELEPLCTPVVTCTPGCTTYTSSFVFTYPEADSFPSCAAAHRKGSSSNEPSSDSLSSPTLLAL
The test system of data set [6] is RAW264.7. The data set is described as follows: Inhibition of NF-kappaB/AP-1 in mouse RAW264.7 cells assessed as reduction in LPS-induced iNOS protein expression incubated for 1 hr followed by stimulation with LPS for 24 hrs by Western blot analysis. It counts as cell-based.
For data set [7], the system named is RAW264.7. The data set is described as follows: Inhibition of LPS-induced NF-kappaB (unknown origin) activity expressed in mouse RAW264.7 cells incubated for 1 hr followed by stimulation with LPS for 18 hrs by luciferase reporter gene assay. In kind it is cell-based. On the technique in general: Reporter assays use an easily measured gene product as a stand-in for the process of interest.

Data set [8] relates to RAW264.7. The data set is described as follows: Inhibition of NF-kappaB/AP-1 in mouse RAW264.7 cells assessed as reduction in LPS-induced TNF-alpha mRNA level incubated for 4 hrs by SYBR green dye based qRT-PCR analysis. In kind it is cell-based.
Data set [9] has as its target Transcription factor p65 (Mus musculus) (UniProt Q04207). The data set is described as follows: Inhibition of LPS-induced NF-kappaB p65 subunit nuclear translocation in mouse RAW264.7 cells at 50 uM incubated for 1 hr followed by stimulation with LPS for 15 to 45 mins. In kind it is cell-based.
The species entered for a further data set is Mus musculus. The data set is described as follows: Cytotoxicity against LPS-induced mouse RAW264.7 cells assessed as decrease in cell viability up to 50 uM after 24 hrs by MTT assay. As to conditions: raw264.7, 24 h. In kind it is toxicity, cell-based.
The test system of data set [10] is RAW264.7. The data set is described as follows: Inhibition of NF-kappaB/AP-1 in mouse RAW264.7 cells assessed as reduction in LPS-induced COX-2 mRNA level incubated for 4 hrs by SYBR green dye based qRT-PCR analysis. It counts as cell-based.
Data set [11] has as its system RAW264.7. Described as §1. It counts as cell-based.
Data set [12] has as its system RAW264.7. The data set is described as follows: Inhibition of NF-kappaB/AP-1 in mouse RAW264.7 cells assessed as reduction in LPS-induced IL-1beta production incubated for 1 hr followed by stimulation with LPS for 24 hrs by enzyme immuno assay. It counts as cell-based.
The subject of data set [13] is RAW264.7. The data set is described as follows: Inhibition of NF-kappaB/AP-1 in mouse RAW264.7 cells assessed as reduction in LPS-induced TNF-alpha production incubated for 1 hr followed by stimulation with LPS for 24 hrs by enzyme immuno assay. It counts as cell-based.
In data set [14] the target is RAC-alpha serine/threonine-protein kinase (Mus musculus) (UniProt P31750). The data set is described as follows: Inhibition of LPS-induced AKT phosphorylation in mouse RAW264.7 cells at 50 uM incubated for 1 hr followed by stimulation with LPS by Western blot analysis. It counts as cell-based.
RAC-alpha serine/threonine-protein kinase (Mus musculus), sequence (P31750 whole entry): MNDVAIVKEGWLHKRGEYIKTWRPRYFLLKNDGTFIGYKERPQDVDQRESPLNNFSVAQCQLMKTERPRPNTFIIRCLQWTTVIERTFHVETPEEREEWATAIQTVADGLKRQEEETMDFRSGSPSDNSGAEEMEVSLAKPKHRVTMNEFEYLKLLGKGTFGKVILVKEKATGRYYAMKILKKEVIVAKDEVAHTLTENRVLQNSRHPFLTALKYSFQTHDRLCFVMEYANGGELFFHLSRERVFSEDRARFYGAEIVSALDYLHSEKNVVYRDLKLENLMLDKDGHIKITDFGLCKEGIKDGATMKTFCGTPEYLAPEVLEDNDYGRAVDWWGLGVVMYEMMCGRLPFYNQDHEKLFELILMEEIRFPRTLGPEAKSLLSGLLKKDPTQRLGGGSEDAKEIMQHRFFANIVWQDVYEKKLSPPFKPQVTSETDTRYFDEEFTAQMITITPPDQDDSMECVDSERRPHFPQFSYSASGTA
The target in data set [15] is Transcription factor Jun (Homo sapiens) (UniProt P05412). The data set is described as follows: Inhibition of LPS-induced AP-1 (unknown origin) activity expressed in mouse RAW264.7 cells incubated for 1 hr followed by stimulation with LPS for 18 hrs by luciferase reporter gene assay. It counts as cell-based.
Transcription factor Jun (Homo sapiens), sequence (P05412 whole entry): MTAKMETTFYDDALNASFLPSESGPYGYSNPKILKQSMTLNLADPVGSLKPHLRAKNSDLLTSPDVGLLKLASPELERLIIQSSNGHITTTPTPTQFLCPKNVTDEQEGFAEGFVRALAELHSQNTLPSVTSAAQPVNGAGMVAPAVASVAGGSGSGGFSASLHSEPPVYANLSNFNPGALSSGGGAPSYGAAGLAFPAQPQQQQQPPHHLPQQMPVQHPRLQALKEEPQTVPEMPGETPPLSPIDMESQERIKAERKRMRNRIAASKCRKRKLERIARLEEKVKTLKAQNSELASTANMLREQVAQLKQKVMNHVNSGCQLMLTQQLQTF
Data set [16] concerns RAW264.7. The description is as §2. It counts as cell-based.
Data set [17] concerns RAW264.7. The data set is described as follows: Inhibition of NF-kappaB/AP-1 in mouse RAW264.7 cells assessed as reduction in LPS-induced iNOS mRNA level incubated for 4 hrs by SYBR green dye based qRT-PCR analysis. It counts as cell-based.
Data set [18] relates to RAW264.7. The data set is described as follows: Inhibition of NF-kappaB/AP-1 in mouse RAW264.7 cells assessed as reduction in LPS-induced COX-2 protein expression incubated for 1 hr followed by stimulation with LPS for 24 hrs by Western blot analysis. It counts as cell-based.
Data set [19] has as its system RAW264.7. The data set is described as follows: Inhibition of NF-kappaB/AP-1 in mouse RAW264.7 cells assessed as reduction in LPS-induced IL-6 production incubated for 1 hr followed by stimulation with LPS for 24 hrs by enzyme immuno assay. In kind it is cell-based.
Data set [20] has as its system RAW264.7. The data set is described as follows: Inhibition of NF-kappaB/AP-1 in mouse RAW264.7 cells assessed as reduction in LPS-induced IL-6 mRNA level incubated for 4 hrs by SYBR green dye based qRT-PCR analysis. It counts as cell-based.
Data set [21] relates to RAW264.7. The data set is described as follows: Inhibition of NF-kappaB/AP-1 in mouse RAW264.7 cells assessed as reduction in LPS-induced IL-1beta mRNA level incubated for 4 hrs by SYBR green dye based qRT-PCR analysis. It counts as cell-based.

Transcription factor p65 (Mus musculus), sequence (Q04207 whole entry): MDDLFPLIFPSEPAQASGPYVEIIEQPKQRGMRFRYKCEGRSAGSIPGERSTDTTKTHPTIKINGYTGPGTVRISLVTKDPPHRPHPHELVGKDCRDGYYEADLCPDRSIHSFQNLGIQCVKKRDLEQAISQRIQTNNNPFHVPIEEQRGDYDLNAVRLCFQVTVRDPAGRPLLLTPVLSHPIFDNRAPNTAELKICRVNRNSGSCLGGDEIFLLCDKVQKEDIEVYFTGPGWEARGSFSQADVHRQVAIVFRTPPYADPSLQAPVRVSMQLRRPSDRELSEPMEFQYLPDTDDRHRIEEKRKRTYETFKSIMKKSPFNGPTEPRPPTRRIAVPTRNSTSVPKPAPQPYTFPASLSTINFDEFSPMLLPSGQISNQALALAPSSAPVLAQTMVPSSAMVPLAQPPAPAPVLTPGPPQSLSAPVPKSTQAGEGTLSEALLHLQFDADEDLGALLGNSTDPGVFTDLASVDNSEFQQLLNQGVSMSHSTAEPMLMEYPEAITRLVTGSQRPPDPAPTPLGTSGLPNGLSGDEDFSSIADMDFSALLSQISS

Regarding `CC1=CC(=O)CC(C)(C)[C@@]1(O)/C=C/[C@@H](C)O[C@@H]1O[C@H](COC(=O)/C=C/c2ccc(O)c(O)c2)[C@@H](O)[C@H](O)[C@H]1O`, the IC80 at 24 h in data set [1] is 67.8 µM. Moreover, the pIC50 in data set [2] and in [3] was under 4.30 each time.
Take `COc1cc(CCCO)cc(OC)c1O[C@@H]1O[C@H](COC(=O)/C=C/c2ccc(O)c(O)c2)[C@@H](O)[C@H](O)[C@H]1O`: the inhibition result (in data set [4]; in data set [5]; with RAW264.7 [8]; in data set [9]; in the data set on RAW264.7 [12]; with RAW264.7 [13]) was “Active” throughout. Also, the inhibition result (in [14]; in the data set on RAW264.7 [19]; in the data set with RAW264.7 [20]; in the data set with RAW264.7 [21]) was “Active” in each case. The inhibition result (in the data set with RAW264.7 [6]; with RAW264.7 [7]; in the data set on RAW264.7 [10]; with RAW264.7 [11]; in data set [15]; in the data set on RAW264.7 [16]) was “Dose-dependent effect” in each case. Also, the inhibition result with RAW264.7 [17] and in the data set on RAW264.7 [18] was “Dose-dependent effect” in each case. The Activity entry in the data set listed under Mus musculus was “Non-Toxic”. Further, in data set [1], the IC80 at 24 h turned out to be 67.6 µM. The pIC50 is 4.36 in data set [2] and 4.32 in data set [3].
On to `C/C(=C\CO)CO[C@@H]1O[C@H](COC(=O)/C=C/c2ccc(O)c(O)c2)[C@@H](O)[C@H](O)[C@H]1O`, for which, in [1], the 80% effect concentration (IC80) at 24 h was over 100 µM. The negative-log IC50 (pIC50) in data set [2] is 4.50; in data set [3] it was under 4.30.
With `CC(=O)/C=C/C1=C(C)[C@@H](O)[C@@H](O[C@@H]2O[C@H](COC(=O)/C=C/c3ccc(O)c(O)c3)[C@@H](O)[C@H](O)[C@H]2O)CC1(C)C`, the concentration for an effect of 80% (IC80) at 24 h in data set [1] is over 100 µM. Also, the negative logarithm of the IC50 (pIC50) in data set [2] and in [3] was under 4.30 throughout.
As to `C[C@H](/C=C/[C@@]1(O)[C@H](C)CC(=O)CC1(C)C)O[C@@H]1O[C@H](COC(=O)/C=C/c2ccc(O)c(O)c2)[C@@H](O)[C@H](O)[C@H]1O`, the concentration for an effect of 80% (IC80) at 24 h in data set [1] was over 100 µM. Moreover, the negative logarithm of the IC50 (pIC50) in [2] and in data set [3] was under 4.30 throughout.
